In ChEMBL document CHEMBL5634147, “Multi-targeted anti-Alzheimer's agents: Synthesis, biological evaluation, and molecular modeling study of some pyrazolopyridine hybrids” (Eur J Med Chem, 2023):
pIC50: −log10 of the molar value. Blank lines part the entries; values can stand above or below the molecule they belong to. Calls of active or inactive are those of the source. No cut-off for these calls is given here. Non-standard residues stand in square brackets, D forms with d. Residues, ends and D or L forms follow the SMILES beside them. *: point of attachment. Myristoyl = CCCCCCCCCCCCCC(=O)*; pS = N[C@@H](COP(=O)(O)O)C(=O)O

Legend:
[1] = target: Acetylcholinesterase (Homo sapiens, UniProt P22303); assay: Inhibition of human AChE using acetylthiocholine iodide as substrate measured after 15 to 20 mins by DTNB reagent based Ellman's method
[2] = target: T1, Amyloid-beta precursor protein (Homo sapiens, UniProt P05067); assay: Inhibition of self mediated Amyloid beta (1 to 42) (unknown origin) aggregation measured every 5 mins by ThT fluorescence based assay
[3] = Metal chelating activity assessed as Zn2+-compound complex formation by measuring hyperchromic shift in presence of ZnSO4 by UV-Vis spectroscopy
[4] = Metal chelating activity assessed as Cu2+-compound complex formation by measuring hyperchromic shift in presence of CuSO4 by UV-Vis spectroscopy
[5] = Cytotoxicity against human WI-38 cells assessed as cell viability upto 3.125 uM incubated for 72 hrs by MTT assay relative to control; assay type: toxicity, cell-based; conditions: read-out: Activity
[6] = target: T1, Amyloid-beta precursor protein; assay: Inhibition of self-mediated Amyloid beta (1 to 42) (unknown origin) aggregation at 10 uM measured every 5 mins by ThT fluorescence based assay relative to control
[7] = target: Cholinesterase (Homo sapiens, UniProt P06276); assay: Inhibition of human BuChE measured after 15 to 20 mins by DTNB reagent based Ellman's method
[8] = target: Glycogen synthase kinase-3 beta (Homo sapiens, UniProt P49841); assay: Inhibition of human GSK3beta by luminescent microplate reader method
[9] = test system: human AChE; assay: Safety index, ratio of IC50 for cytotoxicity against human WI-38 cells to IC50 for human AChE; assay type: toxicity, cell-based; conditions: read-out: Ratio IC50
[10] = Metal chelating activity assessed as Fe2+-compound complex formation by measuring hyperchromic shift in presence of FeSO4 by UV-Vis spectroscopy
[11] = Cytotoxicity against human WI-38 cells assessed as inhibition of cell growth incubated for 72 hrs by MTT assay; assay type: toxicity, cell-based
[12] = target: T2, Microtubule-associated protein tau (Homo sapiens, UniProt P10636); assay: Inhibition of human tau protein aggregation at 10 uM incubated for 1.5 hrs by TMB substrate based ELISA relative to control
[13] = target: T2, Microtubule-associated protein tau; assay: Inhibition of human tau protein aggregation incubated for 1.5 hrs by TMB substrate based ELISA
[14] = Metal chelating activity assessed as Cu2+-compound complex formation by measuring hypochromic shift in presence of CuSO4 by UV-Vis spectroscopy
[15] = Metal chelating activity assessed as Zn2+-compound complex formation by measuring hypochromic shift in presence of ZnSO4 by UV-Vis spectroscopy

Acetylcholinesterase, sequence (P22303 whole entry): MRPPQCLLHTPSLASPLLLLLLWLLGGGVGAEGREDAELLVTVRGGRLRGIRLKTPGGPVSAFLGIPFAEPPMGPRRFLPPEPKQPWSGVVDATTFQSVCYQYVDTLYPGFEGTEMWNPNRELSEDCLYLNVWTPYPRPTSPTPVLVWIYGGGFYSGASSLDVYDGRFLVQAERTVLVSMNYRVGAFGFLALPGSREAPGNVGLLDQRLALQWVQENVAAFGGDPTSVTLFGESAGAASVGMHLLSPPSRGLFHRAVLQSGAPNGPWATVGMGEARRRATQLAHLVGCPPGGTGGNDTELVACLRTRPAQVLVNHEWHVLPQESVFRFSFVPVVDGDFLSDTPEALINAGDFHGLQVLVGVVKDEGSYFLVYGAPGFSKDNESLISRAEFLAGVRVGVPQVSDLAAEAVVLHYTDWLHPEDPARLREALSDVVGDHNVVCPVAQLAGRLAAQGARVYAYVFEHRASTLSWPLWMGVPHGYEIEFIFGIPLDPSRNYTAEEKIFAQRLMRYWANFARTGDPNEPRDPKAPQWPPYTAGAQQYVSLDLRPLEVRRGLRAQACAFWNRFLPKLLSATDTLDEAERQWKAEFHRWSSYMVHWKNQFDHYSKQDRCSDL
T1 sequence (P05067 whole entry): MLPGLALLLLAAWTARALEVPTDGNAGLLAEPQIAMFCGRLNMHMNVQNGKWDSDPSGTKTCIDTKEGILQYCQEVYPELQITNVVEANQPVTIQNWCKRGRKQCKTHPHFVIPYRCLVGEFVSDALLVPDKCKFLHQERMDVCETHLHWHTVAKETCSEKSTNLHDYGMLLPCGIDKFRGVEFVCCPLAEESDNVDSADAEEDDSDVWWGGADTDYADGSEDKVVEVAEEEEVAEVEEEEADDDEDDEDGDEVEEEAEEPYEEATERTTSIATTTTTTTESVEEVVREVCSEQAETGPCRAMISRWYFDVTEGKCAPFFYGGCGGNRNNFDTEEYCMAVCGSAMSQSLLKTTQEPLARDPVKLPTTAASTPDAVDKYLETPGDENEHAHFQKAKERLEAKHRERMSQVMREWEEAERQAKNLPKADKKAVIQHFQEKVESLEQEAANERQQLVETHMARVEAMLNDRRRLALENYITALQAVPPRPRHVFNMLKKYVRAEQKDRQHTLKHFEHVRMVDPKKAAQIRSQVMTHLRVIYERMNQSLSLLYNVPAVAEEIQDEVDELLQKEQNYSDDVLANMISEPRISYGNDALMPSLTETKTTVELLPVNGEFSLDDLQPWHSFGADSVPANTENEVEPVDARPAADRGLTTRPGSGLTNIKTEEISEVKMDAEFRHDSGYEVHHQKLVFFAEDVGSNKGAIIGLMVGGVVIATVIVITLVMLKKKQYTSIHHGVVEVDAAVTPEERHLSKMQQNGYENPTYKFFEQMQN
T2 sequence (P10636 whole entry): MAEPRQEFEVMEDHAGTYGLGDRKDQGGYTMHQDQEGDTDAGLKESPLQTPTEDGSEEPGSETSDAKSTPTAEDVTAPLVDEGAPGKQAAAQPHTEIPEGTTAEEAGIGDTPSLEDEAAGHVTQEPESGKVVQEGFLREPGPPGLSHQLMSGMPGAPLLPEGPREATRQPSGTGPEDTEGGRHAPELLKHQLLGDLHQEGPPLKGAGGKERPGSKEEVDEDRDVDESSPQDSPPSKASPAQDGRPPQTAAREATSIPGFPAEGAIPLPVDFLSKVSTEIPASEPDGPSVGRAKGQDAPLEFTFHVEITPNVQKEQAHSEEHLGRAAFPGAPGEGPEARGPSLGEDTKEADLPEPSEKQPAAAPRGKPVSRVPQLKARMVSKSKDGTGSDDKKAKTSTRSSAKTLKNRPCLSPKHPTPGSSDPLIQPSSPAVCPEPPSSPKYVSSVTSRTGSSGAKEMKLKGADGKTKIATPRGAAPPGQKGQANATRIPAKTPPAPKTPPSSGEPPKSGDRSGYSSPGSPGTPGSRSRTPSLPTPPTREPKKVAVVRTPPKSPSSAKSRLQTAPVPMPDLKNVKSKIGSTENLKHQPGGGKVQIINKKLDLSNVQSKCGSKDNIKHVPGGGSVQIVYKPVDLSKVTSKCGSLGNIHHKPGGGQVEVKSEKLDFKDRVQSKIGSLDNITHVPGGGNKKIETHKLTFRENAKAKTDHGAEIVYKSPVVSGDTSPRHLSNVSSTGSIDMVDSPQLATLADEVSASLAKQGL
Glycogen synthase kinase-3 beta, sequence (P49841 whole entry): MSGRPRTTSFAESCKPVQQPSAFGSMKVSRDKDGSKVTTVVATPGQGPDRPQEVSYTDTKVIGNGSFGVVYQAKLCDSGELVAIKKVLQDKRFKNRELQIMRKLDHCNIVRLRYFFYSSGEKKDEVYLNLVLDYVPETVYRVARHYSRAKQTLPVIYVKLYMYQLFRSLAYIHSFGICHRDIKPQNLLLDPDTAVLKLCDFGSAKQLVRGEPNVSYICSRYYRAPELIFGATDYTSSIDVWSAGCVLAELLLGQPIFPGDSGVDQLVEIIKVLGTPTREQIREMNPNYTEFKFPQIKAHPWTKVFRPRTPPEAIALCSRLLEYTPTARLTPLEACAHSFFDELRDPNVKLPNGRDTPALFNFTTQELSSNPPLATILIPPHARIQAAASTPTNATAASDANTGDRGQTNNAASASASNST
Cholinesterase, sequence (P06276 whole entry): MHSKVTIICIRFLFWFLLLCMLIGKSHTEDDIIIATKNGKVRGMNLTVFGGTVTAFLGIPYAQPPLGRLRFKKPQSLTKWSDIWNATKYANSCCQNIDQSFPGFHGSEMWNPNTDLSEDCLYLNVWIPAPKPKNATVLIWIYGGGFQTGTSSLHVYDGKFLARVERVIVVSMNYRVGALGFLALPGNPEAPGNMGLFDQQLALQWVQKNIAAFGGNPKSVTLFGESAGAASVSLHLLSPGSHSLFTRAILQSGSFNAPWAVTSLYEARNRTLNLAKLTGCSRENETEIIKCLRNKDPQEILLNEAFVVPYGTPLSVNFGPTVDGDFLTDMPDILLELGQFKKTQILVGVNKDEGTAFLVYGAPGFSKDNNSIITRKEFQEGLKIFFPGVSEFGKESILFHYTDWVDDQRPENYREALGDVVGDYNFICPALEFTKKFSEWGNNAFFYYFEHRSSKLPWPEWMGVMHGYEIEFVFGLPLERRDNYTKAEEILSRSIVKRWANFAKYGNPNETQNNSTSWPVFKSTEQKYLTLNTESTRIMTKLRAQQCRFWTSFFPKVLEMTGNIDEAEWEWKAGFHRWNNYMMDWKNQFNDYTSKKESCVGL

Compound: Nc1n[nH]c2nc(-c3ccccc3)cc(-c3ccc(Br)cc3)c12
pIC50 [1]: 5.65

Compound: COc1ccc(-c2cc(-c3ccccc3)nc3[nH]nc(N)c23)cc1
pIC50 [1]: 4.65

Compound: Nc1n[nH]c2nc(-c3ccc(Br)cc3)cc(-c3ccc(Br)cc3)c12
pIC50 [2]: 6.34 | Activity [3]: Active | Activity [4]: Active | viability at 72 h, 3.125 µM [5]: 100% | inhibition [6]: 79% | pIC50 [7]: 6.77 | pIC50 [1]: 6.77 | pIC50 [8]: 6.68 | selectivity ratio [9]: 343 | Activity [10]: Active | IC50 at 72 h [11]: 58300 nM | inhibition [12]: 66% | pIC50 [13]: 4.93

Compound: COc1ccc(-c2cc(-c3ccc(OC)c(OC)c3)c3c(N)n[nH]c3n2)cc1
pIC50 [1]: 6.09

Compound: COc1ccc(-c2cc(-c3ccc(OC)cc3)c3c(N)n[nH]c3n2)cc1
pIC50 [1]: 6.59

Compound: COc1ccc(-c2cc(-c3ccc(Br)cc3)nc3[nH]nc(N)c23)cc1OC
pIC50 [2]: 6.11 | Activity [14]: Active | viability at 72 h, 3.125 µM [5]: 100% | inhibition [6]: 75% | pIC50 [7]: 6.16 | Activity [15]: Active | pIC50 [1]: 6.80 | pIC50 [8]: 6.59 | selectivity ratio [9]: 528 | Activity [10]: Active | IC50 at 72 h [11]: 84500 nM | inhibition [12]: 60% | pIC50 [13]: 4.69

Compound: COc1ccc(-c2cc(-c3ccc(Br)cc3)nc3[nH]nc(N)c23)cc1
pIC50 [1]: 6.46

Compound: COc1ccc(-c2cc(-c3ccc(Br)cc3)c3c(N)n[nH]c3n2)cc1
pIC50 [1]: 5.43

Compound: COc1ccc(-c2cc(-c3cc(OC)c(OC)c(OC)c3)c3c(N)n[nH]c3n2)cc1
pIC50 [1]: 5.22

Compound: COc1cc(-c2cc(-c3ccc(Br)cc3)nc3[nH]nc(N)c23)cc(OC)c1OC
pIC50 [1]: 6.20

Compound: COc1cc(-c2cc(-c3ccccc3)nc3[nH]nc(N)c23)cc(OC)c1OC
pIC50 [1]: 5.72

Compound: Nc1n[nH]c2nc(-c3ccccc3)cc(-c3ccccc3)c12
pIC50 [1]: 5.28

Compound: COc1ccc(-c2cc(-c3ccccc3)nc3[nH]nc(N)c23)cc1OC
pIC50 [1]: 5.02

pIC50 [8]: 6.00
Compound: CCCCCCCCCCCCCC(=O)N[C@@H](CCCCN)C(=O)N[C@@H](CCC(=O)O)C(=O)N[C@@H](C)C(=O)N1CCC[C@H]1C(=O)N1CCC[C@H]1C(=O)N[C@@H](CO)C(=O)N1CCC[C@H]1C(=O)N1CCC[C@H]1C(=O)N[C@@H](CCC(N)=O)C(=O)N[C@@H](COP(=O)(O)O)C(=O)N1CCC[C@H]1C(=O)O (Myristoyl-KEAPPSPPQ[pS]P-OH)
